Results published in article PMC9880178, “Cecropin D-derived synthetic peptides in the fight against Candida albicans cell filamentation and biofilm formation” (Frontiers in Microbiology, 2023).
Where two headings read alike, the source gives them in different places. Where no end group is shown, it is not given here.

Legend:
C. albicans cells = assay: microbe, parasite or virus in culture; conditions: for IC90: 24 h; for FICI: combination of peptide with caspofungin
Description: To determine the viability of C. albicans, the 2,3-bis(2-methoxy-4-nitro-5-sulfo-phenyl)-2H-tetrazolium-5-carboxanilide (XTT) (ThermoFisher Scientific) reduction assay is used as a routine tool for quantitative measurement of fungal metabolic activity, growth and response to antifungal treatment ([van Dijck et al., 2018]). The tests were performed as described ([Kulig et al., 2022]) with some modifications. Briefly, 100 μl of RPMI 1640 medium without phenol red (Biowest) and 50 μl of XTT solution (1 mg/ml; Invitrogen, Waltham, MA, United States), freshly activated with phenazine methosulfate (5 μg/ml; Sigma-Aldrich) in the same medium, were added to C. albicans cells. After 40 min of incubation at 37°C in the dark, 100 μl of supernatants were transferred to the wells of a new 96-well microplate (Sarstedt, Nümbrecht, Germany). The absorbance of the formazan product was measured spectrophotometrically at 450 nm using a Synergy H1 microplate reader (BioTek Instruments, Winooski, VT, United States).
The following concentrations of peptides and antifungal drugs were used for the assay: ΔM3 0.4–50 μM, ΔM4 0.4–3.1 μM, amphotericin B 0.2–1.6 μM, fluconazole 0.2–1.6 μM and caspofungin 0.003–0.2 μM (the latter two from Sigma-Aldrich). The combinatory effects of each peptide and each conventional antimycotic drug were tested by the previously described checkerboard method ([Guo et al., 2008]; [Do Nascimento Dias et al., 2020]) with minor modification. C. albicans cells (3 × 10^2) were suspended in 100 μl of RPMI 1640 medium, containing peptide, drug, or their combination, in wells of Falcon® 96-well clear flat bottom TC-treated culture microplate (Corning). Fungal cells only in RPMI 1640 medium without peptides and drugs served as a control. Incubation was carried out for 24 h at 37°C in an atmosphere of 5% CO2 and 95% humidity without shaking. After this time, cell viability was measured using an XTT reduction assay. The analysis was performed in biological triplicate. For each combination, Fractional Inhibitory Concentration Index (FICI) was determined using the following formula: […]
Where FICa is the ratio of IC90 value for the compound a in combination to the IC90 value of the agent a alone; FICb is the ratio of IC90 value for compound b in combination to the IC90 value of the agent b alone.
The FICI ≤0.5 was interpreted as a synergistic effect, 0.5< FICI ≤1.0 as additive, 1.0< FICI ≤2.0 as indifferent and FICI >2.0 as antagonism.

[1] = tested on: mitochondria of C. albicans biofilm cells; assay: Mitochondrial activity, MitoTracker Orange / MitoTracker Green; assay type: cell-based, Candida albicans; conditions: 50 μM ΔM3, 6.2 μM ΔM4 or 2.7 μM amphotericin B, 3 h, 24-h biofilm
Description: The 24-h biofilms of C. albicans were incubated with 100 μl of ΔM3 (50 μM) or ΔM4 (6.2 μM) and amphotericin B (2.7 μM; positive control) solutions in RPMI 1640 medium for 3 h at 37°C. After that time, biofilms were washed with 200 μl of PBS and incubated for 30 min at 37°C with MitoTracker Green TM dye (Invitrogen) at final concentration of 500 nM, used to detect the change in total mitochondrial mass, and MitoTracker Orange (500 nM), used to detect the change in mitochondrial activity. Mitochondria were imaged in the FITC and TRIC channel, using the Olympus IX73 microscope.

[2] = tested on: cytosolic Ca2+ in C. albicans biofilm; assay: Cytosolic Ca2+, Fura-2 Calcium Flux Assay; assay type: cell-based, Candida albicans; conditions: 10 mM, positive control, 3 h, 24-h biofilm
Description: Accumulation of cytosolic Ca^2+ was measured with the Fura-2 Calcium Flux Assay Kit (Abcam, Cambridge, Great Britain). The 24-h biofilms of C. albicans were incubated for 3 h with 100 μl of ΔM3 (25 μM and 50 μM) or ΔM4 (6.2 μM and 12.5 μM) and H2O2 (10 mM; positive control) solutions prepared in RPMI 1640. The concentration of peptides was chosen close to those for which the effect of apoptosis was obtained in experiments analyzing the activity of metacaspases. After incubation, biofilms were washed with Hanks Balanced Salt Solution (Biowest) with Pluronic® F127 Plus (Abcam). Then 100 μl of Fura-2 AM solution was added to the biofilms and incubated for 1 h at room temperature. The fluorescence was then measured using a Synergy H1 microplate reader with excitation at 340 nm and emission at 510 nm.

human erythrocytes = conditions: cited from earlier work
Source text: Promising antimicrobial properties were also previously reported for the cecropin D-like peptide (UniProtKB accession number: P85210) from the greater wax moth Galleria mellonella ([Cytrynska et al., 2007]). Modification of particular residues resulting in an increase of peptide charge and basic residues on the polar face of the molecule compared to a neutral wild-type peptide, enhanced the antibacterial activity of peptides derived from the cecropin D-like natural sequence. One such type of derivative was the synthetic cationic peptide ΔM2 with 39 amino acid residues and a charge of +9, which ...

[3] = Candida albicans, read-out: IC90, compound acting alone
[4] = drug (compound a) in combination with ΔM3
[5] = drug (compound a) in combination with ΔM4

| Molecule | IC90 (C. albicans cells; [3]) [nM] | FICa (C. albicans cells; [4]) | FICa (C. albicans cells; [5]) | IC90 (C. albicans cells; cells) [nM] | FICI (C. albicans cells) | also measured |
| --- | --- | --- | --- | --- | --- | --- |
| C[C@@H]1[C@H](O)[C@@H](C)/C=C/C=C/C=C/C=C/C=C/C=C/C=C/[C@H](O[C@@H]2O[C@H](C)[C@@H](O)[C@H](N)[C@@H]2O)C[C@@H]2O[C@](O)(C[C@@H](O)C[C@@H](O)[C@H](O)CC[C@@H](O)C[C@@H](O)CC(=O)O[C@H]1C)C[C@H](O)[C@H]2C(=O)O [Amphotericin B, amphotericin B] | 1600 | 0.5 | 0.5 | – | – | mitochondrial activity (MitoTracker Orange fluorescence) [1]: partial loss of mitochondrial activity |
| OO [H2O2] | – | – | – | – | – | increase in cytosolic Ca2+ concentration [2]: up to 50% |
| CC[C@H](C)C[C@H](C)CCCCCCCCC(=O)N[C@H]1C[C@@H](O)[C@@H](NCCN)NC(=O)[C@@H]2[C@@H](O)CCN2C(=O)[C@H]([C@H](O)CCN)NC(=O)[C@H]([C@H](O)[C@@H](O)c2ccc(O)cc2)NC(=O)[C@@H]2C[C@@H](O)CN2C(=O)[C@H]([C@@H](C)O)NC1=O [Caspofungin, caspofungin] | 100 | 0.03 | 0.12 | – | – | – |
| OC(Cn1cncn1)(Cn1cncn1)c1ccc(F)cc1F [Fluconazole, fluconazole] | 800 | 0.25 | 0.25 | – | – | IC90 in combination with each peptide compared to administered alone (C. albicans cells; combination with ΔM3 or ΔM4): four-fold lower |
| NFFKRIRRAWKRIWKWIYSA [ΔM4] | – | – | – | 3100 | 0.370 | – |
| NFFKRIRRAGKRIRKAIISA [ΔM3] | – | – | – | 50000 | 0.062 | hemolytic activity (human erythrocytes): low |
